# Results reported in US11033642B2, “Multidentate bifunctional chelating agents for radionuclide complexation in diagnostics and therapy” (UNIVERSITAT ZURICH, priority 2014, dated 2021).
# Assay: Solubility observed during complexation
# Type: physicochemical
# Protocol: Ligand II is not soluble either in 0.1 M HCl or in H2O. The complexation was carried out in MeOH using zirconium (IV) acetylacetonate [Zr(acac)4]. A mixture of ligand II (50 mg, 0.058 mmol) and Zr(acac)4 (28.3 mg, 0.058 mmol) in 15 mL MeOH was heated at reflux for 15 h with continuous stirring under N2 atmosphere. The solvent was then removed and the residue was then washed with Et2O (20 mL) and acetone (10 mL). The compound was obtained as off white solid (48 mg, 87%). The compound is it not soluble in common organic solvents including DMSO. […] Therefore due to the limited solubility NMR spectra of the compound could not be obtained. However, the formation of the complex can be confirmed using LC-MS. Elemental analysis calculated for C38H64N8O14Zr.6H2O.(CH3)2CO3C, 44.19, H, 7.42, N, 10.06. Found C, 44.11, H, 7.04, N, 10.16.
smiles,measurement,setting,value
"CC(=O)N(O)CCCCCNC(=O)CCC(=O)N(O)CCCCCNC(=O)CCC(=O)N(O)CCCCCNC(=O)CCC(=O)N(O)CCCCCNC(=O)CCC(=O)O [Ligand II, 4-[5-[[4-[5-[[4-[5-[[4-[5-[acetyl(hydroxy)amino]pentylamino]-4-oxo-butanoyl]-hydroxy-amino]pentylamino]-4-oxo-butanoyl]-hydroxy-amino]pentylamino]-4-oxo-butanoyl]-hydroxy-amino]pentylamino]-4-oxo-butanoic acid]",solubility in 0.1 M HCl,0.1 M HCl,not soluble
same,solubility in H2O,H2O,not soluble
